Results: article PMC9694777, “Fractionation and Extraction Optimization of Potentially Valuable Compounds and Their Profiling in Six Varieties of Two Nicotiana Species” (Molecules, 2022)
Converted amounts (≈) assume the structure as drawn.

Assay: physchem
From the text: Determination of the small molecule content in a complex plant matrix depends on the understanding of minimum solubility in the chosen extraction solvent. […] Often, tests on mixture are hardly reproducible on pure compounds if this aspect is not routinely considered in the workflow. We performed a general testing of best solvent systems to compare a wide range of small molecules of interest to understand the limitations of general approaches within a complex plant matrix such as Nicotiana.
For each of the 29 reference compounds, 2 mg was weighed into a 15 mL glass tube and dissolved in the minimum amount of the test solvent by gradually adding the solvent with a micropipette until complete dissolution or to a final volume of 10.0 mL. Seven solvents with polarities from nonpolar to polar were chosen for the test: hexane (C6H14), CH2Cl2, CH2Cl2/MeOH (4:1, v/v), EtOH, MeOH, MeOH/H2O (7:3, v/v), and H2O. The consumed solvents and their volumes were recorded for each reference compound.

[1] = 22 °C, organic solvent or mixture, thermodynamic from solid, Solubility in C6H14, solvent hexane (C6H14); room temperature (21–23 °C); 2 mg compound, solvent added until dissolution or 10.0 mL
[2] = 22 °C, organic solvent or mixture, thermodynamic from solid, Solubility in CH2Cl2, solvent dichloromethane (CH2Cl2); room temperature (21–23 °C)
[3] = 22 °C, organic solvent or mixture, thermodynamic from solid, Solubility in CH2Cl2/MeOH (4:1), solvent CH2Cl2/MeOH (4:1, v/v); room temperature (21–23 °C)
[4] = 22 °C, organic solvent or mixture, thermodynamic from solid, Solubility in EtOH, solvent ethanol; room temperature (21–23 °C)
[5] = 22 °C, organic solvent or mixture, thermodynamic from solid, Solubility in MeOH, solvent methanol; room temperature (21–23 °C)
[6] = 22 °C, organic solvent or mixture, thermodynamic from solid, Solubility in MeOH/H2O (7:3), solvent MeOH/H2O (7:3, v/v); room temperature (21–23 °C)
[7] = 22 °C, water, thermodynamic from solid, Solubility in H2O, solvent water; room temperature (21–23 °C)
[8] = solvent MeOH/H2O (7:3, v/v); room temperature (21–23 °C)
[9] = solvent ethanol; room temperature (21–23 °C)
[10] = solvent methanol; room temperature (21–23 °C)
[11] = solvent water; room temperature (21–23 °C)
[12] = MeOH/H2O (7:3, v/v), 22 °C, organic solvent or mixture, thermodynamic from solid, Solubility in MeOH/H2O (7:3), solvent MeOH/H2O (7:3, v/v); room temperature (21–23 °C)
[13] = dichloromethane (CH2Cl2), 22 °C, organic solvent or mixture, thermodynamic from solid, Solubility in CH2Cl2, solvent dichloromethane (CH2Cl2); room temperature (21–23 °C)
[14] = ethanol, 22 °C, organic solvent or mixture, thermodynamic from solid, Solubility in EtOH, solvent ethanol; room temperature (21–23 °C)
[15] = hexane (C6H14), 22 °C, organic solvent or mixture, thermodynamic from solid, Solubility in C6H14, solvent hexane (C6H14); room temperature (21–23 °C); 2 mg compound, solvent added until dissolution or 10.0 mL
[16] = methanol, 22 °C, organic solvent or mixture, thermodynamic from solid, Solubility in MeOH, solvent methanol; room temperature (21–23 °C)
[17] = solvent CH2Cl2/MeOH (4:1, v/v); room temperature (21–23 °C)
[18] = water, 22 °C, thermodynamic from solid, Solubility in H2O, solvent water; room temperature (21–23 °C)

CCCCC/C=C\C/C=C\CCCCCCCC(=O)O [Linoleic acid]
solubility [1]: 374 mg/mL (≈ 1330 mM)
solubility [2]: 504 mg/mL (≈ 1800 mM)
solubility [3]: 502 mg/mL (≈ 1790 mM)
solubility [4]: 558 mg/mL (≈ 1990 mM)
solubility [5]: 526 mg/mL (≈ 1880 mM)
solubility [6]: < 0.19 mg/mL
solubility [7]: < 0.19 mg/mL

C=CC(=C)CCCC(C)CCCC(C)CCCC(C)C (stereo not shown) [Neophytadiene]
Solubility in MeOH/H2O (7:3) [8]: NS (not soluble, insoluble in the solvent at the tested concentration range (0.19–558 mg/mL))
Solubility in EtOH [9]: 57.5 mg/mL (≈ 206 mM)
Solubility in MeOH [10]: 4.08 mg/mL (≈ 14.6 mM)
Solubility in H2O [11]: NS (not soluble, insoluble in the solvent at the tested concentration range (0.19–558 mg/mL))

C[C@@H]1O[C@@H](OC[C@H]2O[C@@H](Oc3c(-c4ccc(O)c(O)c4)oc4cc(O)cc(O)c4c3=O)[C@H](O)[C@@H](O)[C@@H]2O)[C@H](O)[C@H](O)[C@H]1O [Rutin]
solubility [12]: 0.52 mg/mL (≈ 0.852 mM)
solubility [13]: < 0.19 mg/mL
solubility [14]: 6.67 mg/mL (≈ 10.9 mM)
solubility [15]: < 0.19 mg/mL
solubility [16]: 49 mg/mL (≈ 80.3 mM)
Solubility in CH2Cl2/MeOH (4:1) [17]: 3.82 mg/mL (≈ 6.26 mM)
Solubility in CH2Cl2/MeOH (4:1) (solvent CH2Cl2/MeOH (4:1, v/v); room temperature (21–23 °C); listed as rutin): < 100 mg/mL
solubility [18]: < 0.19 mg/mL

c1cncc([C@@H]2CCCN2)c1 [Nornicotine]
solubility [1]: 358 mg/mL (≈ 2420 mM)
solubility [2]: 422 mg/mL (≈ 2850 mM)
solubility [3]: 412 mg/mL (≈ 2780 mM)
solubility [4]: 396 mg/mL (≈ 2670 mM)
solubility [5]: 428 mg/mL (≈ 2890 mM)
solubility [6]: 418 mg/mL (≈ 2820 mM)
solubility [7]: 416 mg/mL (≈ 2810 mM)

Megastigmatrienone
Solubility in CH2Cl2/MeOH (4:1) [17]: 212 mg/mL
Solubility in MeOH/H2O (7:3) [8]: 38.8 mg/mL
Solubility in CH2Cl2 (solvent dichloromethane (CH2Cl2); room temperature (21–23 °C)): 215 mg/mL
Solubility in EtOH [9]: 197 mg/mL
Solubility in C6H14 (solvent hexane (C6H14); room temperature (21–23 °C); 2 mg compound, solvent added until dissolution or 10.0 mL): 1.1 mg/mL
Solubility in MeOH [10]: 228 mg/mL
Solubility in H2O [11]: NS (not soluble, insoluble in the solvent at the tested concentration range (0.19–558 mg/mL))

NC(=O)c1cccnc1 [Nicotinamide]
solubility [2]: < 0.19 mg/mL
solubility [4]: 20.8 mg/mL (≈ 170 mM)
solubility [6]: 114 mg/mL (≈ 933 mM)
solubility [15]: < 0.19 mg/mL
solubility [16]: 66.3 mg/mL (≈ 543 mM)
Solubility in CH2Cl2/MeOH (4:1) [17]: 37.3 mg/mL (≈ 305 mM)
Solubility in CH2Cl2/MeOH (4:1) (solvent CH2Cl2/MeOH (4:1, v/v); room temperature (21–23 °C); listed as nicotinamide): < 100 mg/mL
solubility [18]: 150 mg/mL (≈ 1230 mM)

C/C(=C\CNc1ncnc2[nH]cnc12)CO [Zeatin]
solubility (22 °C, organic solvent or mixture, thermodynamic from solid, Solubility in C6H14): < 0.19 mg/mL
solubility (22 °C, organic solvent or mixture, thermodynamic from solid, Solubility in CH2Cl2): < 0.19 mg/mL
solubility (22 °C, organic solvent or mixture, thermodynamic from solid, Solubility in EtOH): 0.56 mg/mL (≈ 2.55 mM)
solubility (22 °C, organic solvent or mixture, thermodynamic from solid, Solubility in MeOH): 2.28 mg/mL (≈ 10.4 mM)
solubility (22 °C, organic solvent or mixture, thermodynamic from solid, Solubility in MeOH/H2O (7:3)): 3.03 mg/mL (≈ 13.8 mM)
solubility (22 °C, water, thermodynamic from solid, Solubility in H2O): < 0.19 mg/mL

Phytol
Solubility in MeOH/H2O (7:3) [8]: 0.32 mg/mL
Solubility in H2O [11]: NS (not soluble, insoluble in the solvent at the tested concentration range (0.19–558 mg/mL))

C=C[C@](C)(O)CC[C@@H]1[C@@]2(C)CCCC(C)(C)[C@@H]2CC[C@@]1(C)O [Sclareol]
solubility (CH2Cl2/MeOH (4:1, v/v), 22 °C, organic solvent or mixture, thermodynamic from solid, Solubility in CH2Cl2/MeOH (4:1), solvent CH2Cl2/MeOH (4:1, v/v); room temperature (21–23 °C)): 219 mg/mL (≈ 710 mM)
solubility [12]: 3.17 mg/mL (≈ 10.3 mM)
solubility [13]: 58 mg/mL (≈ 188 mM)
solubility [14]: 75.7 mg/mL (≈ 245 mM)
solubility [15]: 3.76 mg/mL (≈ 12.2 mM)
solubility [16]: 65.7 mg/mL (≈ 213 mM)
solubility [18]: < 0.19 mg/mL

c1cncc(C2=NCCC2)c1 [Myosmine]
solubility [1]: 4.27 mg/mL (≈ 29.2 mM)
solubility [2]: 194 mg/mL (≈ 1330 mM)
solubility [3]: 175 mg/mL (≈ 1200 mM)
solubility [4]: 418 mg/mL (≈ 2860 mM)
solubility [5]: 356 mg/mL (≈ 2440 mM)
solubility [6]: 231 mg/mL (≈ 1580 mM)
solubility [7]: 180 mg/mL (≈ 1230 mM)

C=C1CC/C=C(/C)CC[C@@H]2[C@@H]1CC2(C)C [Caryophyllene]
Solubility in MeOH/H2O (7:3) [8]: NS (not soluble, insoluble in the solvent at the tested concentration range (0.19–558 mg/mL))
Solubility in EtOH [9]: 196 mg/mL (≈ 959 mM)
Solubility in MeOH [10]: 36.2 mg/mL (≈ 177 mM)
Solubility in H2O [11]: NS (not soluble, insoluble in the solvent at the tested concentration range (0.19–558 mg/mL))
